Where two headings read alike, the source gives them in different places.
Legend:
MDA-MB-231 cells [1] = experiment: Immunofluorescence staining LC3B and p62; type: cell-based, human; details: 5 μM and 10 μM, 24 h
Description: Cells were grown on sterile coverslips placed in a 6-well plate. After treatments, cells were fixed with 4% (w/v) paraformaldehyde and permeabilized with 0.2% (v/v) Triton X-100 in PBS. After blocking with 2% (w/v) bovine serum albumin in PBS, […] was detected using anti-LC3B and anti-p62 antibody followed by reaction with FITC or PE-conjugated secondary antibody (BD Biosciences). Coverslips were mounted on glass slides with Prolong Gold Antifade Reagent containing DAPI (Invitrogen), and fluorescence images were taken on a Leica Microsystems TCS SP2 Confocal Spectral microscope^26.

PC3 prostate cancer cell = experiment: MTT cell viability assay, PC3 prostate cancer cell; type: cell-based
Description: (§1) Cell viability was evaluated by measuring the reduction in MTT to yield blue formazan. Cells were cultured in 96-well plates, allowed to attach overnight, and then treated with compounds. After treatment, MTT solution (1 mg/ml) was added to each well, and plates were incubated for another 4 h. Medium were removed, blue formazan was dissolved in DMSO, and the absorbance was read at 570 nm^20.

[2] = test system: various breast cancer cell lines; experiment: Cell viability, various breast cancer cell lines (21a compared with curcumin); type: cell-based; details: TNBC cells
Description: as §1

MDA-MB-231 cells [3] = experiment: cDNA microarray; type: cell-based, human
Description: The cells were incubated with or without 21a. After exposure, cell pellets were collected, and the total RNA from each treatment was purified using the Qiagen RNeasy Mini Kit (Qiagen, Valencia, Calif., USA). The RNA purity was determined to check the quality at 260/280 nm using a NanoDrop 1000 Spectrophotometer (Thermo Fisher Scientific, Wilmington, Del., USA). mRNA was amplified and labeled using the Gene-Chip WT Sense Target Labeling and Control Reagents kit (Affymetrix, Santa Clara, Calif., USA) for expression analysis. The synthesized cDNA was labeled with fluorescence and then hybridized for 17 h using AffymetrixGeneChip Human Gene 1.0 ST array (Affymetrix) to determine microarray hybridization following the manufacturer's protocols. The arrays were subsequently washed using Fluidics Station 450 (Affymetrix), stained with streptavidin-phycoerythrin (Gene-Chip Hybridization, Wash, and Stain kit, Affymetrix), and scanned on a GeneChip Scanner 3000 (Affymetrix). The localized concentrations of fluorescent molecules were quantitated and analyzed using Expression Console Software (Affymetrix) with default RMA parameters as previously described (Chang et al. 2012; Liu et al. 2013). […]

Description for MDA-MB-231 Xenograft: Female nu/nu mice (5 weeks old) were from National Laboratory Animal Center, Taipei, Taiwan. […] MDA-MB-231 breast cancer cells (5×10^6 cells per mouse) were suspended in 0.1 ml of Matrigel solution (50% (v/v) Matrigel in PBS) and inoculated into the mammary fat pads of the mice. […] Compounds was administered P.O. once every day for 32 days. Tumor size and mouse body weight were measured once every 4 days, and tumor volume (mm3) was calculated using the equation: length×(width)^2×0.5. At the end of experiments, mice were sacrificed and tumor nodules were dissected and weighed.

`COc1cc(/C=C/C(=O)/C=C(O)/C=C/c2ccc(OC(=O)C(C)(CO)CO)c(OC)c2)ccc1OC(=O)C(C)(CO)CO` [Compound 21a, ((1E,3Z,6E)-3-Hydroxy-5-oxohepta-1,3,6-triene-1,7-diyl)bis(2-methoxy-4,1-phenylene) bis(3-hydroxy-2-(hydroxymethyl)-2-methylpropenoate)] was tested, and the “LC3B-positive and p62-positive cells” value (MDA-MB-231 cells [1]) was “significantly increased”, the “tumor weight smaller than that of the control group” value (MDA-MB-231 Xenograft; 21a PO combined with Doxorubicin IP 1 mg/kg/day) was 80% and the “reduction of MDA-MB-231 tumor weight compared with control group” value (MDA-MB-231 Xenograft; 21a alone, PO (50 mg/kg/day)) was 60%. The “effect of combined use on antitumor activity of Doxorubicin” value (MDA-MB-231 Xenograft; 21a with Doxorubicin) was “enhance the antitumor activity of Doxorubicin”, the IC50 (PC3 prostate cancer cell; PC-3, treated 24 hours, read-out: IC50 24 hours) was 7.8 ± 0.03 µM and the IC50 (PC3 prostate cancer cell; PC-3, treated 48 hours, read-out: IC50 48 hours) was 6 ± 0.35 µM. The IC50 (PC3 prostate cancer cell; PC-3, treated 72 hours, read-out: IC50 72 hours) was 3.9 ± 0.08 µM, the “times greater inhibitory activity than curcumin” value [2] was 3.4-7.4 times and the genes down-regulated (MDA-MB-231 cells [3]; at least 2.5 folds) was 28 genes. For the same compound, the genes up-regulated (MDA-MB-231 cells [3]; at least 2.5 folds) was 69 genes, the “log2 (Ratio) ATF3” value (MDA-MB-231 cells [3]; mRNA, MDA-MB-231 cells, 24-h treatment, ID PH_hs_0000057) was 3.698 and the “log2 (Ratio) IL12A” value (MDA-MB-231 cells [3]; mRNA, MDA-MB-231 cells, 24-h treatment, ID PH_hs_0000076) was 4.587. The “log2 (Ratio) DUSP2” value (MDA-MB-231 cells [3]; mRNA, MDA-MB-231 cells, 24-h treatment, ID PH_hs_0000156) was 4.094, the “log2 (Ratio) SRGN” value (MDA-MB-231 cells [3]; mRNA, MDA-MB-231 cells, 24-h treatment, ID PH_hs_0000255) was 2.917 and the “log2 (Ratio) MMP10” value (MDA-MB-231 cells [3]; mRNA, MDA-MB-231 cells, 24-h treatment, ID PH_hs_0000305) was 4.942. The “log2 (Ratio) SLC25A25” value (MDA-MB-231 cells [3]; mRNA, MDA-MB-231 cells, 24-h treatment, ID PH_hs_0000566) was 2.529, the “log2 (Ratio) DNAJB9” value (MDA-MB-231 cells [3]; mRNA, MDA-MB-231 cells, 24-h treatment, ID PH_hs_0000684) was 3.854 and the “log2 (Ratio) RND3” value (MDA-MB-231 cells [3]; mRNA, MDA-MB-231 cells, 24-h treatment, ID PH_hs_0000694) was 2.626. For the same compound, the “log2 (Ratio) SESN2” value (MDA-MB-231 cells [3]; mRNA, MDA-MB-231 cells, 24-h treatment, ID PH_hs_0000852) was 3.324, the “log2 (Ratio) OMA1” value (MDA-MB-231 cells [3]; mRNA, MDA-MB-231 cells, 24-h treatment, ID PH_hs_0000866) was −2.613 and the “log2 (Ratio) SENP5” value (MDA-MB-231 cells [3]; mRNA, MDA-MB-231 cells, 24-h treatment, ID PH_hs_0001262) was 2.748. For the same compound, the “log2 (Ratio) SAT1” value (MDA-MB-231 cells [3]; mRNA, MDA-MB-231 cells, 24-h treatment, ID PH_hs_0002492) was 3.366, the “log2 (Ratio) OSGEN1” value (MDA-MB-231 cells [3]; mRNA, MDA-MB-231 cells, 24-h treatment, ID PH_hs_0002700) was 3.513 and the “log2 (Ratio) C18orf25” value (MDA-MB-231 cells [3]; mRNA, MDA-MB-231 cells, 24-h treatment, ID PH_hs_0002812) was 2.668. The “log2 (Ratio) ZNF77” value (MDA-MB-231 cells [3]; mRNA, MDA-MB-231 cells, 24-h treatment, ID PH_hs_0002971) was 2.665, the “log2 (Ratio) PDGFC” value (MDA-MB-231 cells [3]; mRNA, MDA-MB-231 cells, 24-h treatment, ID PH_hs_0003147) was −2.534 and the “log2 (Ratio) SMIM13” value (MDA-MB-231 cells [3]; mRNA, MDA-MB-231 cells, 24-h treatment, ID PH_hs_0003180) was 2.646. For the same compound, the “log2 (Ratio) PPP1R15A” value (MDA-MB-231 cells [3]; mRNA, MDA-MB-231 cells, 24-h treatment, ID PH_hs_0004421) was 5.381, the “log2 (Ratio) GEM” value (MDA-MB-231 cells [3]; mRNA, MDA-MB-231 cells, 24-h treatment, ID PH_hs_0004561) was 3.997 and the “log2 (Ratio) MMP1” value (MDA-MB-231 cells [3]; mRNA, MDA-MB-231 cells, 24-h treatment, ID PH_hs_0004751) was 3.219. For the same compound, the “log2 (Ratio) LMNB1” value (MDA-MB-231 cells [3]; mRNA, MDA-MB-231 cells, 24-h treatment, ID PH_hs_0004988) was −2.878, the “log2 (Ratio) ZFAND2A” value (MDA-MB-231 cells [3]; mRNA, MDA-MB-231 cells, 24-h treatment, ID PH_hs_0006387) was 6.274 and the “log2 (Ratio) F2R” value (MDA-MB-231 cells [3]; mRNA, MDA-MB-231 cells, 24-h treatment, ID PH_hs_0007383) was −2.717. For the same compound, the “log2 (Ratio) TOP2A” value (MDA-MB-231 cells [3]; mRNA, MDA-MB-231 cells, 24-h treatment, ID PH_hs_0009437) was −3.052, the “log2 (Ratio) DUSP1” value (MDA-MB-231 cells [3]; mRNA, MDA-MB-231 cells, 24-h treatment, ID PH_hs_0010276) was 4.189 and the “log2 (Ratio) TXNIP|LOC101060503” value (MDA-MB-231 cells [3]; mRNA, MDA-MB-231 cells, 24-h treatment, ID PH_hs_0010634) was −2.66. The “log2 (Ratio) H1F0” value (MDA-MB-231 cells [3]; mRNA, MDA-MB-231 cells, 24-h treatment, ID PH_hs_0012629) was −2.89, the “log2 (Ratio) BRF2” value (MDA-MB-231 cells [3]; mRNA, MDA-MB-231 cells, 24-h treatment, ID PH_hs_0014119) was 2.572 and the “log2 (Ratio) HSPA1B” value (MDA-MB-231 cells [3]; mRNA, MDA-MB-231 cells, 24-h treatment, ID PH_hs_0014155) was 2.836. For the same compound, the “log2 (Ratio) METTL7A” value (MDA-MB-231 cells [3]; mRNA, MDA-MB-231 cells, 24-h treatment, ID PH_hs_0014995) was −3.653, the “log2 (Ratio) CLK1” value (MDA-MB-231 cells [3]; mRNA, MDA-MB-231 cells, 24-h treatment, ID PH_hs_0020147) was 2.804 and the “log2 (Ratio) DNAJC3” value (MDA-MB-231 cells [3]; mRNA, MDA-MB-231 cells, 24-h treatment, ID PH_hs_0021974) was 3.011. For the same compound, the “log2 (Ratio) CLCF1” value (MDA-MB-231 cells [3]; mRNA, MDA-MB-231 cells, 24-h treatment, ID PH_hs_0022919) was 2.961, the “log2 (Ratio) FRS2” value (MDA-MB-231 cells [3]; mRNA, MDA-MB-231 cells, 24-h treatment, ID PH_hs_0023008) was 3.242 and the “log2 (Ratio) C21orf91” value (MDA-MB-231 cells [3]; mRNA, MDA-MB-231 cells, 24-h treatment, ID PH_hs_0023556) was 2.733. For the same compound, the “log2 (Ratio) HSPA5” value (MDA-MB-231 cells [3]; mRNA, MDA-MB-231 cells, 24-h treatment, ID PH_hs_0023711) was 2.599, the “log2 (Ratio) BBS2” value (MDA-MB-231 cells [3]; mRNA, MDA-MB-231 cells, 24-h treatment, ID PH_hs_0023845) was −3.269 and the “log2 (Ratio) CBY1” value (MDA-MB-231 cells [3]; mRNA, MDA-MB-231 cells, 24-h treatment, ID PH_hs_0023862) was −2.551. The “log2 (Ratio) TRIB3” value (MDA-MB-231 cells [3]; mRNA, MDA-MB-231 cells, 24-h treatment, ID PH_hs_0023894) was 2.584, the “log2 (Ratio) CDKN1A” value (MDA-MB-231 cells [3]; mRNA, MDA-MB-231 cells, 24-h treatment, ID PH_hs_0024155) was 2.904 and the “log2 (Ratio) ATP2A2” value (MDA-MB-231 cells [3]; mRNA, MDA-MB-231 cells, 24-h treatment, ID PH_hs_0024236) was 2.548. For the same compound, the “log2 (Ratio) DNAJB4” value (MDA-MB-231 cells [3]; mRNA, MDA-MB-231 cells, 24-h treatment, ID PH_hs_0024315) was 3.075, the “log2 (Ratio) C3orf52” value (MDA-MB-231 cells [3]; mRNA, MDA-MB-231 cells, 24-h treatment, ID PH_hs_0025319) was 3.562 and the “log2 (Ratio) CLU” value (MDA-MB-231 cells [3]; mRNA, MDA-MB-231 cells, 24-h treatment, ID PH_hs_0025525) was 3.198.

Reference: patent US10787413B2, “Derivatives of curcuminoids and use thereof as an anticancer agent” (CHINA MEDICAL UNIVERSITY, priority 2016, dated 2020)
